Assay results published in patent US6825178B1, “Methods and products for treating pseudomonas infection” (The Brigham and Women's Hospital, Inc., priority 1996, dated 2004).
Marks after values point to notes of the source that are not given here.

What was measured:
[1] = system: WI-38 cells; experiment: Inhibition of internalization of P. aeruginosa strain PAO1 into WI-38 cells; type: cell-based, human; details: strain PAO1, WI 38 cells, 1 nM peptide
Experimental: WI-38 (human diploid lung cell line, ATCC. no. CCL-75) and A549 cells (human lung carcinoma cells, ATCC no. CCL-185) were obtained from the ATCC and grown according to their instructions.
Bacterial ingestion assay. Cells were released from monolayers in tissue culture flasks by 5 min. of incubation with trypsin-versene mixture (BioWhitaker, Walkersville, Md.), washed, counted and seeded into 96-well tissue culture plates at 10^5 cells/well in supplemented F-12 medium and incubated at 37° C. in 5% CO2. Fresh cultures of P. aeruginosa grown overnight at 37° C. on a tryptic soy agar plate were suspended in supplemented F-12 medium to prepare the bacterial inoculum. Then 10^6 colony forming units (cfu) of the bacterial inoculum were added per well of 10^5 epithelial cells. […] Three to 9 replicates were obtained per point, and analyzed using analysis of variance (ANOVA) and the Fisher PLSD statistic to determine pairwise differences.
Inhibition of ingestion in the presence of membranes isolated from C127 cells, monoclonal antibodies to extracellular domains of CFTR, or synthetic peptides corresponding to the first or fourth extracellular domains of CFTR was evaluated by adding these materials to the bacteria prior to adding them directly into wells for evaluation of bacterial uptake. […]

[2] = system: P. aeruginosa strain PAO1; experiment: Neonatal mouse model of infection, CFTR peptide added to bacterial inoculum; type: in vivo; details: 7-day old mice, 10 nM peptide added to PAO1 inoculum, intranasal, 24 hours after infection; for Median cfu (10th-90th percentile cfu) P. aeruginosa internalized per mg. lung tissue: gentamicin-exclusion
Experimental: Neonatal mouse model of infection. Seven-day old neonatal Balb/c mice were infected with ˜10^8 cfu of stain PAO1 delivered intranasally as described, with the addition of 10 nM of a synthetic peptide corresponding to either the first or fourth extracellular domains of CFTR to the bacterial inoculum. Twenty-four hours later 7 animals were killed, right and left lungs removed, weighed and dispersed into single cell suspensions by grinding through a fine-mesh wire screen. An aliquot was removed, Triton X-100 added to a final concentration of 0.5% to release intracellular bacteria and the total cfu of bacteria present in each lung determined. The remaining portion of the lung cell suspension was treated with 300 μg gentamicin/ml for 60 minutes to kill extracellular P. aeruginosa. The cells were then pelleted in a centrifuge (400×g, 10 minutes), washed twice in RPMI medium, and resuspended in 200 μl of 0.5% Triton X-100 to release intracellular bacteria that survived the gentamicin treatment. These suspensions were diluted and plated for bacterial enumeration. The cfu per milligram lung weight was calculated and differences among groups analyzed by nonparametric statistics (Mann-Whitney U test) due to outliers in some groups.
To confirm that binding and internalization of P. aeruginosa by the first predicted extracellular domain of CFTR is important in resistance to lung infection, 7-day old Balb/c mice were nasally inoculated with 10^8 cfu of P. aeruginosa stain PAO1 mixed with either 10 nM of the peptide corresponding to the first or fourth predicted extracellular domains of CFTR and the course of bacterial infection was followed for over 24 hours. […] Thus, inhibiting P. aeruginosa internalization by blocking the bacterial interaction with CFTR in the lung leads to increased bacterial counts in this tissue, indicating an important mechanism for clearance of P. aeruginosa from the lung following inhalation of these organisms.

[3] = listed as First extracellular domain
[4] = listed as first extracellular domain peptide
[5] = listed as Fourth extracellular domain

Sequence | Mean cfu (standard deviation) of P. aeruginosa internalized [1] | Median cfu (10th-90th percentile cfu) P. aeruginosa internalized per mg. lung tissue [2, 3] | Median cfu (10th-90th percentile cfu) P. aeruginosa internalized per mg. lung tissue [2, 4] | Median cfu (10th-90th percentile cfu) P. aeruginosa total per mg. lung tissue [2, 3] | Median cfu (10th-90th percentile cfu) P. aeruginosa total per mg. lung tissue [2, 4] | Median cfu (10th-90th percentile cfu) P. aeruginosa internalized per mg. lung tissue [2, 5] | Median cfu (10th-90th percentile cfu) P. aeruginosa internalized per mg. lung tissue ([2]; listed as fourth extracellular domain peptide) | Median cfu (10th-90th percentile cfu) P. aeruginosa total per mg. lung tissue [2, 5] | Median cfu (10th-90th percentile cfu) P. aeruginosa total per mg. lung tissue ([2]; listed as fourth predicted extracellular domain)
GRIIASYDPDNKEER (listed as Homo Sapiens) [First domain] | 3.497 × 10^4 (3.751 × 10^3)^a cfu | 0 (0-278) cfu per mg lung tissue | virtually no internalized P. aeruginosa | 152,419 (37,860-519,612) cfu per mg lung tissue | ~1.5×10^5 cfu per mg lung tissue | – | – | – | –
LWLLGNTPLQDKGNSTHSRNNSYAVIITSTS (listed as Homo Sapiens) [Fourth domain, reference compound] | 7.3433 × 10^4 (9.124 × 10^3) cfu | – | – | – | – | 13,246 (3,578-49,558) cfu per mg lung tissue | > 10^4 cfu per mg lung tissue | 20,450 (4,000-61,008) cfu per mg lung tissue | ~2×10^4 cfu per mg lung tissue
